Key:
[1] = tested on: Triticum aestivum; assay: Drought stress greenhouse test Part B, visual scoring vs stressed control plants; format: in vivo; conditions: spray application 25 g/ha, efficacy range of 2-3 pots
Procedure: (§1) Seeds of monocotyledonous and dicotyledonous crop plants were sown in sandy loam in plastic pots, covered with soil or sand and cultivated in a greenhouse under good growth conditions. The trial plants were treated at the early leaf stage (BBCH10-BBCH13). To assure uniform water supply before commencement of stress, the potted plants were supplied with water by dam irrigation prior to substance application.
(§2) The inventive compounds formulated in the form of wettable powders (WP) were sprayed onto the green parts of the plants as an aqueous suspension at an equivalent water application rate of 600 l/ha with addition of 0.2% wetting agent (e.g. agrotin). Substance application was followed immediately by stress treatment of the plants.
(§3) Drought stress was induced by gradual drying out under the following conditions:
(§4) “Day”: 14 hours with illumination at 26-30° C. “Night”: 10 hours without illumination at 18-20° C.
(§5) The duration of the respective stress phases was guided mainly by the condition of the stressed control plants. It was ended (by re-irrigating and transfer to a greenhouse with good growth conditions) as soon as irreversible damage was observed on the stressed control plants.
(§6) The end of the stress phase was followed by an about 4-7-day recovery phase, during which the plants were once again kept under good growth conditions in a greenhouse. The duration of the recovery phase was guided mainly by when the trial plants had attained a state which enabled visual scoring of potential effects, and is therefore variable.
(§7) Once this juncture had been reached, the appearance of the plants treated with test substances was recorded in comparison to the stressed control plants by the following categories:
For each substance and dosage, 2-3 pots were treated and evaluated.
(§8) BRSNS=Brassica napus TRZAS=Triticum aestivum

[2] = tested on: Brassica napus; assay: as above; format: in vivo; design: key: 0: no effect; 10: slight positive effect; 20: clear positive effect; 30: strong positive effect; conditions: efficacy range of 2-3 pots
Procedure: as §1, §2, §3, §4
The duration of the respective stress phases was guided mainly by the condition of the stressed control plants. […]
as §7
For each substance and dosage, 2-3 pots were treated and evaluated. […]

[3] = biological target: T1, phosphatase ABI1 via the co-regulator RCAR11/PYR1 (Arabidopsis thaliana, UniProt O49686+P49597); assay: In vitro inhibition of the phosphatase ABI1 via the co-regulator RCAR11/PYR1, MUP dephosphorylation; format: biochemical; design: dose or concentration left out as unconfirmed; conditions: in a solution of DMSO and water; fluorescence at 460 nm
T1 sequence (O49686 1-191): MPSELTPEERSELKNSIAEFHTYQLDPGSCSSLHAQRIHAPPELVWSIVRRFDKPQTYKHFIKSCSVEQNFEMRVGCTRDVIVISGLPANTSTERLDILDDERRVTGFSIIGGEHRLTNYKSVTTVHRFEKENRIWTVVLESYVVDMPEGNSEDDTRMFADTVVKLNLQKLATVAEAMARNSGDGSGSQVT
T1 sequence (P49597 1-434): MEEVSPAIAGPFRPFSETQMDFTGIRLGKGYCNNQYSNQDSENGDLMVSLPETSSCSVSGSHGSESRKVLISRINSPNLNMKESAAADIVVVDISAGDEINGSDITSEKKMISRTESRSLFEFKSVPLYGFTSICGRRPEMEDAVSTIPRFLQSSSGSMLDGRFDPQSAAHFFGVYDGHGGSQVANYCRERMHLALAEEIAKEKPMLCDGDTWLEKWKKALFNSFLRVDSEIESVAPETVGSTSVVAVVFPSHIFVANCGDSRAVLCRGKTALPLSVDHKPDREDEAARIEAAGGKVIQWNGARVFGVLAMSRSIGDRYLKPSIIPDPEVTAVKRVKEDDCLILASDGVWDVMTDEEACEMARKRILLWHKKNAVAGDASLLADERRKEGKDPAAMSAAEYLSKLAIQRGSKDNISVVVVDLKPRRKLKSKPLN
Summary of the method: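 Arabidopsis ABI1 (0.15 μg/well) with RCAR11/PYR1 (0.30 μg/well) in Tris-HCl pH 8, NaCl, MnCl2, DTT, Tween20; MUP substrate, 20 min at 35 °C, fluorescence ex 340/em 460 nm. Compounds tested at 5 mM in DMSO/water, optionally pre-treated with porcine liver esterase; inhibition banded ≥90/70/50/30%.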

[4] = tested on: Triticum aestivum; assay: Drought stress greenhouse test Part A, visual scoring vs stressed control plants; format: in vivo; design: key: 0: no effect; 10: slight positive effect; 20: clear positive effect; 30: strong positive effect; conditions: average score of 3 pots
Procedure: as §1, §2, §3
(§9) “Day”: 14 hours with illumination at ˜26-30° C. “Night”: 10 hours without illumination at ˜18-20° C.
as §5
as §6, with “and was” for “and is”
as §7
(§10) In order to rule out any influence on the effects observed by any fungicidal or insecticidal action of the test compounds, it was additionally ensured that the tests proceeded without fungal infection or insect infestation.
(§11) In each test, for each crop and dosage, plants in 3 pots were treated and evaluated separately. The values reported in Tables A-1 to A-2 below for the effects obtained are averages from the scores obtained.
as §8

[5] = tested on: Brassica napus; assay: as above; format: in vivo; design: key: 0: no effect; 10: slight positive effect; 20: clear positive effect; 30: strong positive effect; conditions: spray application 250 g/ha, average score of 3 pots
Procedure: as §1, §2, §3, §9, §5
as §6, with “and was” for “and is”
as §7, §10, §11, §8

[6] = tested on: Brassica napus; assay: Drought stress greenhouse test Part C, visual scoring vs stressed control plants; format: in vivo; design: key: 0: no effect; 10: slight positive effect; 20: clear positive effect; 30: strong positive effect; conditions: spray application 250 g/ha, efficacy range of 3-4 pots
Procedure: Seeds of monocotyledonous and dicotyledonous crop plants were sown in sandy loam in plastic or wood-fiber pots, covered with soil or sand and cultivated in a greenhouse under good growth conditions. The trial plants were treated at the early leaf stage (BBCH10-BBCH13). To assure uniform water supply before commencement of stress, the potted plants were supplied with water by dam irrigation prior to substance application. The inventive compounds were first formulated as wettable powders (WP) or dissolved in a solvent mixture. The further dilution was effected with water supplemented with 0.2% wetting agent (e.g. agrotin). The finished spray liquor was sprayed onto the green parts of the plant at an equivalent water application rate of 600 l/ha. Substance application was followed immediately by stress treatment of the plants. For this purpose, the wood-fiber pots were transferred in plastic inserts in order to prevent them from subsequently drying out too quickly. Drought stress was induced by gradual drying out under the following conditions: “Day”: 14 hours with illumination at 26-30° C. […] Once this juncture had been reached, the appearance of the plants treated with test substances was recorded in comparison to the stressed control plants by the following categories: [table] For each substance and dosage, 3-4 pots were treated and evaluated. […]

| ABI1 inhibition [3] | SMILES | Effect (BRSNS) [5] | further results |
| --- | --- | --- | --- |
| +++ (90%>inhibition≧70%) | O=C1CCc2cc(NS(=O)(=O)Cc3cc(F)cc(F)c3)ccc2N1CC1CC1 [A19-164] |  | Effect (BRSNS) ([2]; spray application 2.5 g/ha): 20 |
| ++++ (inhibition≧90%) | O=C1CCc2cc(NS(=O)(=O)Cc3ccc(C(F)(F)F)cc3)ccc2N1CC1CC1 [A19-178] | 20 |  |
| ++++ (inhibition≧90%) | COCN1C(=O)CCc2cc(NS(=O)(=O)Cc3ccc(C(F)(F)F)cc3)ccc21 [A49-178] |  | Effect (BRSNS) [6]: 20 |

Second part, the molecule before the results:

| SMILES | ABI1 inhibition [3] | Effect (BRSNS) [5] | further results |
| --- | --- | --- | --- |
| N#CCN1C(=O)CCc2cc(NS(=O)(=O)Cc3ccc(Br)cc3)ccc21 [A16-172] |  |  | Effect (TRZAS) [1]: 10-20; Effect (BRSNS) ([2]; spray application 25 g/ha): 20 |
| O=C1CCc2cc(NS(=O)(=O)Cc3ccc(F)cc3)ccc2N1CC1CC1 [A19-158] | ++++ (inhibition≧90%) | 20 | Effect (TRZAS) ([4]; spray application 25 g/ha): 20-30; Effect (TRZAS) ([4]; spray application 250 g/ha): 20-30 |

Source: patent US20170027172A1, “USE OF SUBSTITUTE OXO TETRAHYDROQUINOLINE SULFONAMIDES OR SALTS THEREOF FOR RAISING STRESS TOLERANCE OF PLANTS” (BAYER CROPSCIENCE AKTIENGESELLSCHAFT, priority 2014, published 2017)
